What was measured:
[1] = test system: formalin-induced rat paw oedema; assay: Formalin-induced hind rat paw oedema assay; assay type: in vivo; details: low dose 10 mg kg^−1 b.w, intraperitoneal, mean ± SEM n = 5
COX-1 = biological target: T1, COX-1 (Ovis aries, UniProt P05979); assay: COX-1 inhibitory assay; assay type: biochemical; details: Cyclooxygenase-1; ΔGexp = −RT ln IC50, T = 300 K
T1 sequence (P05979 25-600): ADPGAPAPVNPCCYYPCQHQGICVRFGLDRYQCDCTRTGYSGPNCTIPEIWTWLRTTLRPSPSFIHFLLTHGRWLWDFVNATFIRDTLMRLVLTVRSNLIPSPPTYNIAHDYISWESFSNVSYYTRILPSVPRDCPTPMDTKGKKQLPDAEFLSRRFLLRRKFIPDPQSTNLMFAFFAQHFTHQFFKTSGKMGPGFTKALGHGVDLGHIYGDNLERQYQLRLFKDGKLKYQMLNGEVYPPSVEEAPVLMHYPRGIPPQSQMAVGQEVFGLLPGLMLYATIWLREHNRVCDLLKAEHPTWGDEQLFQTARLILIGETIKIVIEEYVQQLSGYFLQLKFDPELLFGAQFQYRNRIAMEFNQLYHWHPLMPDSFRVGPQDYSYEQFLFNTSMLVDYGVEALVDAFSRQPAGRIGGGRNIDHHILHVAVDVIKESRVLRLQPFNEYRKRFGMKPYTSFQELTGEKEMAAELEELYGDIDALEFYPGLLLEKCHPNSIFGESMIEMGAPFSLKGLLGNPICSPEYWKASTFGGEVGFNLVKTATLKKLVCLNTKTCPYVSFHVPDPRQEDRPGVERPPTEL

Row | Structure (SMILES) | percentage reduction of rat paw oedema ([1]; 1 h) | percentage reduction of rat paw oedema ([1]; 2 h) | percentage reduction of rat paw oedema ([1]; 4 h) | ΔGexp (experimental binding free energy) (COX-1)
1 | Cc1ccc(-c2cc(C(F)(F)F)nn2-c2ccc(S(N)(=O)=O)cc2)cc1 [Celecoxib] | 24.7 ± 2.2% | 31.4 ± 1.8% | 38.5 ± 1.7% | –
2 | COc1ccc2c(c1)c(CC(=O)O)c(C)n2C(=O)c1ccc(Cl)cc1 [Indomethacin] | 23.3 ± 2.2% | 31.0 ± 3.0% | 37.4 ± 2.8% | -11.0 kcal/mol
